The values that follow come from patent US10117858B2, “Pyridine and pyrazine derivative for the treatment of CF” (Novartis AG, priority 2010, dated 2018).

Each structure is given as a SMILES string.

ΔF508-CFTR, sequence (P13569 other isoform, or with tags, fused parts or gaps del F508-F508): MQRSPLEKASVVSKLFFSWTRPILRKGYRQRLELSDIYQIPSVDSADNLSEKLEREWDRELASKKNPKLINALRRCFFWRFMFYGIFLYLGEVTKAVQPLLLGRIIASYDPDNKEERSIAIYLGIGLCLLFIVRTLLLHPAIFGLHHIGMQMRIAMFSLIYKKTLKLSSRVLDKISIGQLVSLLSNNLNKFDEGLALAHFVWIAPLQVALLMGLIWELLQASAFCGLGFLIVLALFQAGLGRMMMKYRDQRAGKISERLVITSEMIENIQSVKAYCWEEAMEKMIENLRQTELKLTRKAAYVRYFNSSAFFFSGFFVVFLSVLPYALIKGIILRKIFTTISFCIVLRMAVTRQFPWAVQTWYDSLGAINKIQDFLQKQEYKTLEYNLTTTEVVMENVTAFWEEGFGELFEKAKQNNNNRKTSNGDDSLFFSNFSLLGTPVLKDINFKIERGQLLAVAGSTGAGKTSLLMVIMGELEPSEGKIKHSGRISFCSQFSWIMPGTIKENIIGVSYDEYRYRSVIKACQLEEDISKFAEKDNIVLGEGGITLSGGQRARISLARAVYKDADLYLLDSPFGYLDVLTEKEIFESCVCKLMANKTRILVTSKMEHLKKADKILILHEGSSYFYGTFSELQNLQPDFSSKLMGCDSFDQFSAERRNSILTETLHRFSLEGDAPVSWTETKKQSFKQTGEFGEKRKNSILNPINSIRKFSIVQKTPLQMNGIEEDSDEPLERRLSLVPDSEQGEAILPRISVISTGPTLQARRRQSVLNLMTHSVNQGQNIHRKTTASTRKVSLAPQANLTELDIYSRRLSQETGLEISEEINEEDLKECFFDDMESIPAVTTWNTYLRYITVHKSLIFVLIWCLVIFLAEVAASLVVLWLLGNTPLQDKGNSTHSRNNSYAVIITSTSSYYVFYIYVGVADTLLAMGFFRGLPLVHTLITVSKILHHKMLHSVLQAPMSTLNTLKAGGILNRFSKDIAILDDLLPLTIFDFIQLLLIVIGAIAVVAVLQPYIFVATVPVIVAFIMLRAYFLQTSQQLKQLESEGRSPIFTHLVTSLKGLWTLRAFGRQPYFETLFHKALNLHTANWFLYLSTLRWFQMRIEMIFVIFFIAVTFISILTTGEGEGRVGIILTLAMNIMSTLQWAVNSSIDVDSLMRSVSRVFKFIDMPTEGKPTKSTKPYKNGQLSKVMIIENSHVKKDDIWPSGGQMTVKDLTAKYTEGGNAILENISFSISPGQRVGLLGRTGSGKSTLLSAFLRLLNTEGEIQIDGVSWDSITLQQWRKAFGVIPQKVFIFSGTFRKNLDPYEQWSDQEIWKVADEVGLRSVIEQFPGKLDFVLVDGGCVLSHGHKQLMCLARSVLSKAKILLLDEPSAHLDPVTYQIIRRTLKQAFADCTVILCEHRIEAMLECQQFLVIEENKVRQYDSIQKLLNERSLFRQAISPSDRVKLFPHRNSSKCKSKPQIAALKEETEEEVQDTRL

One experiment addresses ΔF508-CFTR (Homo sapiens (Human), UniProt P13569, DEL508-508). Kind of experiment: CFTR potentiator assays (membrane potential, IonWorks Quattro, Ussing chamber ion transport); patent does not say which gave the EC50. Type of experiment: cell-based. The conditions noted are these: Table 1, representative compounds; data measurements described above; read-out: EC50. From the text:
CFTR activity can be quantified by measuring the transmembrane potential. The means for measuring the transmembrane potential in a biological system can employ a number of methods including electrophysiological and optical fluorescence-based membrane potential assays.
The optical membrane potential assay utilises a negatively charged potentiometric dye, such as the FLIPR membrane potential dye (FMP) (see Baxter D F, Kirk M, Garcia A F, Raimondi A, Holmqvist M H, Flint K K, Bojanic D, Distefano P S, Curtis R, Xie Y. ‘A novel membrane potential-sensitive fluorescent dye improves cell-based assays for ion channels.’ J Biomol Screen. 2002 February; 7(1):79-85) which when extracellular is bound to a quenching agent. Upon cellular depolarisation the negatively charged dye redistributes to the intracellular compartment, unbinding from the membrane impermeant quench agent, yielding an increase in fluorescence. This change in fluorescence is proportional to the change in transmembrane potential which can result from the activity of CFTR. The changes in fluorescence can be monitored in real time by an appropriately equipped fluorescence detector such as the FLIPR (fluorometric imaging plate reader) in 96 or 384-well microtitre plates.
Chinese hamster ovary (CHO) cells stably expressing the ΔF508-CFTR channel were used for membrane potential experiments. Cells were maintained at 37° C. in 5% v/v CO2 at 100% humidity in Modified Eagles medium (MEM) supplemented with 8% v/v foetal calf serum, 100 µg/ml methotrexate and 100 U/ml penicillin/streptomycin. Cells were grown in 225 cm^2 tissue culture flasks. For membrane potential assays cells were seeded into 96 well plates at 40,000 cells per well, allowed to adhere and then maintained at 26° C. for 48 h to facilitate channel insertion.
The membrane potential screening assay utilised a low chloride ion containing extracellular solution (˜5 mM) combined with a double addition protocol. The first addition was of buffer with or without test compound followed 5 minutes later by an addition of forskolin (1-20 μM)—this protocol favours maximum chloride efflux in response to ΔF508-CFTR activation. The ΔF508-CFTR mediated chloride ion efflux leads to a membrane depolarisation which is optically monitored by the FMP dye.
Low chloride extracellular (mM): 120 Na-gluconate, 1.2 CaCl2, 3.3 KH2PO4, 0.8 K2HPO4, 1.2 MgCl2, 10.0 D-glucose, 20.0 HEPES, pH 7.4 with NaOH FMP dye: made up as per manufacturers' instructions in low chloride extracellular solution detailed above, at 10× final concentration, and stored as 1 mL aliquots at −20° C.
CFTR activity can also be quantified electrophysiologically using the whole-cell configuration of the patch clamp technique (Hamill et al Pflugers Acrhive 1981). This assay directly measures the currents associated with chloride flow through CFTR channels whilst either maintaining or adjusting the transmembrane voltage. This assay can use either single glass micropipettes or parallel planar arrays to measure CFTR activity from native or recombinant cell systems. Currents measured using parallel planar arrays can be quantified using an appropriately equipped instrument such as the IonWorks Quattro (Molecular Devices) or the Qpatch (Sophion). The Quattro system can measure CFTR currents from either a single cell per recording well (HT configuration) or alternatively from a population of 64 cells per well (Population Patch Clamp PPC) (Finkel A, Wittel A, Yang N, Handran S, Hughes J, Costantin J. ‘Population patch clamp improves data consistency and success rates in the measurement of ionic currents.’ J Biomol Screen. 2006 August; 11(5):488-96).
Chinese hamster ovary (CHO) cells stably expressing the ΔF508-CFTR channel were used for IonWorks Quattro experiments. […]
By EC50 is commonly meant the midpoint of the concentration-response curve. For the molecule `COc1nc(C(=O)NC[C@@](C)(O)C(F)(F)F)c(N)cc1C(F)(F)F` [Example 6, 3-Amino-6-methoxy-5-trifluoromethyl-pyridine-2-carboxylic acid ((R)-3,3,3-trifluoro-2-hydroxy-2-methyl-propyl)-amide], the half-maximal effective concentration (EC50) turned out to be 0.426 µM.

For the molecule `COc1nc(C(=O)NC[C@](C)(O)C(F)(F)F)c(N)cc1C(F)(F)F` [Example 5, 3-Amino-6-methoxy-5-trifluoromethyl-pyridine-2-carboxylic acid ((S)-3,3,3-trifluoro-2-hydroxy-2-methyl-propyl)-amide], the 50% effective concentration (EC50) came to 0.05 µM.

Take `CC(O)(CNC(=O)c1nc(-c2ccc(Cl)cc2Cl)c(C(F)(F)F)cc1N)C(F)(F)F` (single isomer, unassigned) [Example 9, 3-Amino-6-(2,4-dichloro-phenyl)-5-trifluoromethyl-pyridine-2-carboxylic acid (3,3,3-trifluoro-2-hydroxy-2-methyl-propyl)-amide]: the EC50 was found to be 0.09 µM.

For `CC(O)(CNC(=O)c1nc(-c2ccc(Cl)cc2Cl)c(C(F)(F)F)cc1N)C(F)(F)F` (single isomer, unassigned) [Example 10, 3-Amino-6-(2,4-dichloro-phenyl)-5-trifluoromethyl-pyridine-2-carboxylic acid (3,3,3-trifluoro-2-hydroxy-2-methyl-propyl)-amide], the concentration giving a half-maximal response (EC50) is 0.112 µM.

Staying with this experiment, now noted: data measurements described above; read-out: CFTR EC50.
As for `Nc1nc(C(F)(F)F)c(Br)nc1C(=O)NCCc1ccncc1` [3-amino-6-bromo-N-(2-(pyridin-4-yl)ethyl)-5-(trifluoromethyl)pyrazine-2-carboxamide], the half-maximal effective concentration (EC50) is more than 5 µM.

For the molecule `CN1CCN(C(=O)c2nc(Br)c(C(F)(F)F)nc2N)CC1c1ccccc1` (centres unmarked) [(3-amino-6-bromo-5-(trifluoromethyl)pyrazin-2-yl)(4-methyl-3-phenylpiperazin-1-yl)methanone], the EC50 was more than 5 µM.

On to `CC(O)(CNC(=O)c1nc(O)c(C(F)(F)F)cc1N)C(F)(F)F` (centres unmarked) [3-amino-6-hydroxy-N-(3,3,3-trifluoro-2-hydroxy-2-methylpropyl)-5-(trifluoromethyl)picolinamide], for which the EC50 was more than 5 µM.

With `Cn1nccc1CNC(=O)c1nc(Br)c(C(F)(F)F)nc1N` [3-amino-6-bromo-N-((1-methyl-1H-pyrazol-5-yl)methyl)-5-(trifluoromethyl)pyrazine-2-carboxamide], the EC50 was more than 5 µM.

Regarding `Nc1nc(C(F)(F)F)c(Br)nc1C(=O)NCCc1cccnc1` [3-amino-6-bromo-N-(2-(pyridin-3-yl)ethyl)-5-(trifluoromethyl)pyrazine-2-carboxamide], the EC50 is more than 5 µM.

`CCN1CCC[C@H]1CNC(=O)c1nc(Br)c(C(F)(F)F)nc1N` [(S)-3-amino-6-bromo-N-((1-ethylpyrrolidin-2-yl)methyl)-5-(trifluoromethyl)pyrazine-2-carboxamide]: the EC50 is more than 5 µM.

In the case of `Nc1cc(C(F)(F)F)c(Br)nc1C(=O)NCC(=O)O` [2-(3-amino-6-bromo-5-(trifluoromethyl)picolinamido)acetic acid], the EC50 was more than 5 µM.

In the case of `Cn1ccc(CNC(=O)c2nc(Br)c(C(F)(F)F)nc2N)n1` [3-amino-6-bromo-N-((1-methyl-1H-pyrazol-3-yl)methyl)-5-(trifluoromethyl)pyrazine-2-carboxamide], the EC50 was more than 5 µM.

As to `Cn1ccnc1CNC(=O)c1nc(Br)c(C(F)(F)F)nc1N` [3-amino-6-bromo-N-((1-methyl-1H-imidazol-2-yl)methyl)-5-(trifluoromethyl)pyrazine-2-carboxamide], the EC50 is more than 5 µM.

On to `CNc1cc(C(F)(F)F)c(Br)nc1C(=O)NCC(C)(O)C(F)(F)F` (centres unmarked) [6-bromo-3-(methylamino)-N-(3,3,3-trifluoro-2-hydroxy-2-methylpropyl)-5-(trifluoromethyl)picolinamide], for which the 50% effective concentration (EC50) was more than 5 µM.

For the molecule `Cc1ccc(C)n1-c1cc(C(F)(F)F)c(On2nnc3cccnc32)nc1C(=O)NCC(C)(O)C(F)(F)F` (centres unmarked) [6-((3H-[1,2,3]triazolo[4,5-b]pyridin-3-yl)oxy)-3-(2,5-dimethyl-1H-pyrrol-1-yl)-N-(3,3,3-trifluoro-2-hydroxy-2-methylpropyl)-5-(trifluoromethyl)picolinamide], the EC50 was more than 5 µM.

For `CN(C)CCCOc1ccc(-c2nc(C(=O)NCC(=O)c3ccc(F)cc3)c(N)nc2C(F)(F)F)cn1` [3-amino-6-(6-(3-(dimethylamino)propoxy)pyridin-3-yl)-N-(2-(4-fluorophenyl)-2-oxoethyl)-5-(trifluoromethyl)pyrazine-2-carboxamide], the EC50 is more than 5 µM.

As to `CN(C)S(=O)(=O)c1cccc(-c2nc(C(=O)NCC(=O)c3ccc(F)cc3)c(N)cc2C(F)(F)F)c1` [3-amino-6-(3-(N, N-dimethylsulfamoyl)phenyl)-N-(2-(4-fluorophenyl)-2-oxoethyl)-5-(trifluoromethyl)picolinamide], the EC50 is more than 5 µM.

`CN1CCN[C@H](CNC(=O)c2nc(Br)c(C(F)(F)F)nc2N)C1` [(R)-3-amino-6-bromo-N-((4-methylpiperazin-2-yl)methyl)-5-(trifluoromethyl)pyrazine-2-carboxamide]: the EC50 was more than 5 µM.

Turning to `Nc1cc(C(F)(F)F)c(-c2ccc3c(c2)CCNC3=O)nc1C(=O)NCC(=O)c1ccc(F)cc1` [3-amino-N-(2-(4-fluorophenyl)-2-oxoethyl)-6-(1-oxo-1,2,3,4-tetrahydroisoquinolin-6-yl)-5-(trifluoromethyl)picolinamide], the 50% effective concentration (EC50) is more than 5 µM.

Regarding `CN(Cc1ccccc1)C(=O)c1nc(Br)c(C(F)(F)F)nc1N` [3-amino-N-benzyl-6-bromo-N-methyl-5-(trifluoromethyl)pyrazine-2-carboxamide], the EC50 was more than 5 µM.

As for `Cn1cncc1CNC(=O)c1nc(Br)c(C(F)(F)F)nc1N` [3-amino-6-bromo-N-((1-methyl-1H-imidazol-5-yl)methyl)-5-(trifluoromethyl)pyrazine-2-carboxamide], the EC50 was more than 5 µM.

Take `Nc1nc(C(F)(F)F)c(Br)nc1C(=O)NCc1ncn2ccccc12` [3-amino-6-bromo-N-(imidazo[1,5-a]pyridin-1-ylmethyl)-5-(trifluoromethyl)pyrazine-2-carboxamide]: the EC50 was more than 5 µM.

With `Cc1cc(C(N)=O)ccc1-c1nc(C(=O)NCC(=O)c2ccc(F)cc2)c(N)cc1C(F)(F)F` [3-amino-6-(4-carbamoyl-2-methylphenyl)-N-(2-(4-fluorophenyl)-2-oxoethyl)-5-(trifluoromethyl)picolinamide], the EC50 was more than 5 µM.

For the molecule `Cc1ccc(-c2nc(C(=O)NCC(=O)c3ccc(F)cc3)c(N)cc2C(F)(F)F)cc1C` [3-amino-6-(3,4-dimethylphenyl)-N-(2-(4-fluorophenyl)-2-oxoethyl)-5-(trifluoromethyl)picolinamide], the EC50 is more than 5 µM.

Regarding `Cn1ccc2ccc(-c3nc(C(=O)NCC(=O)c4ccc(F)cc4)c(N)cc3C(F)(F)F)cc21` [3-amino-N-(2-(4-fluorophenyl)-2-oxoethyl)-6-(1-methyl-1H-indol-6-yl)-5-(trifluoromethyl)picolinamide], the EC50 was more than 5 µM.

Consider `Nc1nc(C(F)(F)F)c(Br)nc1C(=O)NCc1cn2ccccc2n1` [3-amino-6-bromo-N-(imidazo[1,2-a]pyridin-2-ylmethyl)-5-(trifluoromethyl)pyrazine-2-carboxamide], for which the concentration for a half-maximal effect (EC50) was more than 5 µM.

As to `CN1CCN(C(=O)c2nc(Br)c(C(F)(F)F)nc2N)CC1` [(3-amino-6-bromo-5-(trifluoromethyl)pyrazin-2-yl)(4-methylpiperazin-1-yl)methanone], the 50% effective concentration (EC50) was more than 5 µM.

Turning to `Cn1cnc(CNC(=O)c2nc(Br)c(C(F)(F)F)nc2N)c1` [3-amino-6-bromo-N-((1-methyl-1H-imidazol-4-yl)methyl)-5-(trifluoromethyl)pyrazine-2-carboxamide], the EC50 was more than 5 µM.

Take `CC(C)CN(C)C(=O)c1nc(Br)c(C(F)(F)F)nc1N` [3-amino-6-bromo-N-isobutyl-N-methyl-5-(trifluoromethyl)pyrazine-2-carboxamide]: the EC50 is more than 5 µM.
